# Measurements reported in article PMC8016998, “Identification of potential therapeutic antimicrobial peptides against Acinetobacter baumannii in a mouse model of pneumonia” (Scientific Reports, 2021).
# No end group written: not given here.
# Legend:
# [1] = system: MDRAB clinical strain K2; assay type: cell-based, Acinetobacter baumannii; settings: strain K2, 24 h 37 °C; for MIC: broth microdilution, LB; for MBC: subculture on LB agar
# Protocol: (§1) MBC were determined by extending the MIC procedure in sterilized 96-well polypropylene microtiter plates according to the broth microdilution guidelines of the Clinical and Laboratory Standards Institute with some modification[47]. […] In addition, 10 µL was drawn from each well with no visible turbidity onto LB agar plates and incubated for 24 h at 37 °C. The lowest concentration showing no visible growth on agar subculture was used as the MBC value. All experiments were performed in triplicate.
# [2] = system: MDRAB clinical strain AZ93; assay type: cell-based, Acinetobacter baumannii; settings: strain AZ93, 24 h 37 °C; for MIC: broth microdilution, LB; for MBC: subculture on LB agar
# [3] = system: MDRAB clinical strain AK61; assay type: cell-based, Acinetobacter baumannii; settings: strain AK61, 24 h 37 °C; for MIC: broth microdilution, LB; for MBC: subculture on LB agar
# [4] = system: MDRAB clinical strain AF11; assay type: cell-based, Acinetobacter baumannii; settings: strain AF11, 24 h 37 °C; for MIC: broth microdilution, LB; for MBC: subculture on LB agar
# Protocol: as §1
# [5] = system: MDRAB clinical strain AE5; assay type: cell-based, Acinetobacter baumannii; settings: strain AE5, 24 h 37 °C; for MIC: broth microdilution, LB; for MBC: subculture on LB agar
# [6] = system: Acinetobacter baumannii 19,606; assay type: cell-based; settings: 24 h at 37 °C, triplicate
# [7] = system: MDRAB clinical strain U80; assay type: cell-based, Acinetobacter baumannii; settings: strain U80, 24 h 37 °C; for MIC: broth microdilution, LB; for MBC: subculture on LB agar
# [8] = system: MDRAB clinical strain AK29; assay type: cell-based, Acinetobacter baumannii; settings: strain AK29, 24 h 37 °C; for MIC: broth microdilution, LB; for MBC: subculture on LB agar
# [9] = system: MDRAB clinical strain W11; assay type: cell-based, Acinetobacter baumannii; settings: strain W11, 24 h 37 °C; for MIC: broth microdilution, LB; for MBC: subculture on LB agar
# [10] = system: MDRAB clinical strain AF93; assay type: cell-based, Acinetobacter baumannii; settings: strain AF93, 24 h 37 °C; for MIC: broth microdilution, LB; for MBC: subculture on LB agar
# [11] = system: MDRAB clinical strain AE6; assay type: cell-based, Acinetobacter baumannii; settings: strain AE6, 24 h 37 °C; for MIC: broth microdilution, LB; for MBC: subculture on LB agar
# [12] = system: MDRAB clinical strain AF12; assay type: cell-based, Acinetobacter baumannii; settings: strain AF12, 24 h 37 °C; for MIC: broth microdilution, LB; for MBC: subculture on LB agar
# Protocol: as §1
# [13] = system: MDRAB clinical strain AL87; assay type: cell-based, Acinetobacter baumannii; settings: strain AL87, 24 h 37 °C; for MIC: broth microdilution, LB; for MBC: subculture on LB agar
# [14] = system: MDRAB clinical strain Y92; assay type: cell-based, Acinetobacter baumannii; settings: strain Y92, 24 h 37 °C; for MIC: broth microdilution, LB; for MBC: subculture on LB agar
# [15] = system: MDRAB clinical strain D29; assay type: cell-based, Acinetobacter baumannii; settings: strain D29, 24 h 37 °C; for MIC: broth microdilution, LB; for MBC: subculture on LB agar
# Protocol: as §1
# [16] = system: MDRAB clinical strain J49; assay type: cell-based, Acinetobacter baumannii; settings: strain J49, 24 h 37 °C; for MIC: broth microdilution, LB; for MBC: subculture on LB agar
# Protocol: as §1
# [17] = system: MDRAB clinical strain AO80; assay type: cell-based, Acinetobacter baumannii; settings: strain AO80, 24 h 37 °C; for MIC: broth microdilution, LB; for MBC: subculture on LB agar
# [18] = system: MDRAB clinical strain AG51; assay type: cell-based, Acinetobacter baumannii; settings: strain AG51, 24 h 37 °C; for MIC: broth microdilution, LB; for MBC: subculture on LB agar
# Protocol: as §1
# [19] = system: MDRAB clinical strain U95; assay type: cell-based, Acinetobacter baumannii; settings: strain U95, 24 h 37 °C; for MIC: broth microdilution, LB; for MBC: subculture on LB agar
# [20] = system: MDRAB clinical strain O59; assay type: cell-based, Acinetobacter baumannii; settings: strain O59, 24 h 37 °C; for MIC: broth microdilution, LB; for MBC: subculture on LB agar
# Protocol: as §1
# [21] = system: Acinetobacter baumannii 17,978; assay type: cell-based; settings: 24 h at 37 °C, triplicate; for MBC: 10 µL from wells without turbidity onto LB agar;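 as to all read-outs here: CLSI broth microdilution in 96-well polypropylene plates, MBC taken as lowest concentration giving no growth when clear wells were subcultured on LB agar for 24 h at 37 °C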
# Protocol: as §1
# [22] = system: MDRAB clinical strain AN10; assay type: cell-based, Acinetobacter baumannii; settings: strain AN10, 24 h 37 °C; for MIC: broth microdilution, LB; for MBC: subculture on LB agar
# Protocol: as §1
# [23] = system: MDRAB clinical strain L87; assay type: cell-based, Acinetobacter baumannii; settings: strain L87, 24 h 37 °C; for MIC: broth microdilution, LB; for MBC: subculture on LB agar
# Protocol: as §1
# [24] = system: MDRAB clinical strain AS40; assay type: cell-based, Acinetobacter baumannii; settings: strain AS40, 24 h 37 °C; for MIC: broth microdilution, LB; for MBC: subculture on LB agar
# [25] = system: MDRAB clinical strains; assay type: cell-based, Acinetobacter baumannii; settings: range over MDRAB clinical strains (details in Supplementary Table 2); subculture on LB agar, 24 h 37 °C
# Protocol: as §1
substance,measurement,setting,value
GLFGKLIKKFGRKAISYAVKKARGKH [Latarcin 2a],MIC,[1],64 µg/mL
same,MBC,[1],64 µg/mL
same,MIC,[2],8 µg/mL
same,MBC,[2],8 µg/mL
same,MIC,[3],8 µg/mL
same,MBC,[3],8 µg/mL
same,MIC,[4],8 µg/mL
same,MBC,[4],8 µg/mL
same,MIC,[5],8 µg/mL
same,MBC,[5],8 µg/mL
same,MBC,[6]; 10 µL from wells without turbidity onto LB agar,16 µg/mL
same,MIC,"[6]; broth microdilution (CLSI, modified), LB medium, 5 × 10^5 CFU/mL",16 µg/mL
same,MIC,[7],16 µg/mL
same,MBC,[7],16 µg/mL
same,MIC,[8],8 µg/mL
same,MBC,[8],8 µg/mL
same,MIC,[9],8 µg/mL
same,MBC,[9],8 µg/mL
same,MIC,[10],8 µg/mL
same,MBC,[10],8 µg/mL
same,MIC,[11],8 µg/mL
same,MBC,[11],8 µg/mL
same,MIC,[12],8 µg/mL
same,MBC,[12],8 µg/mL
same,MIC,[13],4 µg/mL
same,MBC,[13],4 µg/mL
same,MIC,[14],8 µg/mL
same,MBC,[14],8 µg/mL
same,MIC,[15],8 µg/mL
same,MBC,[15],16 µg/mL
same,MIC,[16],64 µg/mL
same,MBC,[16],64 µg/mL
same,MIC,[17],8 µg/mL
same,MBC,[17],8 µg/mL
same,MIC,[18],4 µg/mL
same,MBC,[18],4 µg/mL
same,MIC,[19],16 µg/mL
same,MBC,[19],16 µg/mL
same,MIC,[20],16 µg/mL
same,MBC,[20],16 µg/mL
same,MBC,[21],16 µg/mL
same,MIC,"[21]; broth microdilution (CLSI, modified), LB medium, 5 × 10^5 CFU/mL, lowest concentration with no visible growth",16 µg/mL
same,MIC,[22],4 µg/mL
same,MBC,[22],4 µg/mL
same,MIC,[23],16 µg/mL
same,MBC,[23],16 µg/mL
same,MIC,[24],8 µg/mL
same,MBC,[24],8 µg/mL
GLGSVFGRLARILGRVIPKV-NH2 [Pilosulin],MIC,[1],16 µg/mL
same,MBC,[1],32 µg/mL
same,MIC,[2],16 µg/mL
same,MBC,[2],16 µg/mL
same,MIC,[3],16 µg/mL
same,MBC,[3],16 µg/mL
same,MBC,[25],8 to 32 µg/mL
same,MIC,[4],8 µg/mL
same,MBC,[4],16 µg/mL
same,MIC,[5],8 µg/mL
same,MBC,[5],16 µg/mL
same,MIC,[7],16 µg/mL
same,MBC,[7],16 µg/mL
same,MIC,[8],16 µg/mL
same,MBC,[8],16 µg/mL
same,MIC,[9],16 µg/mL
same,MBC,[9],16 µg/mL
same,MIC,[10],8 µg/mL
same,MBC,[10],8 µg/mL
same,MIC,[11],16 µg/mL
same,MBC,[11],16 µg/mL
same,MIC,[12],8 µg/mL
same,MBC,[12],16 µg/mL
same,MIC,[13],8 µg/mL
same,MBC,[13],8 µg/mL
same,MIC,[14],8 µg/mL
same,MBC,[14],8 µg/mL
same,MIC,[15],16 µg/mL
same,MBC,[15],32 µg/mL
same,MIC,[16],16 µg/mL
same,MBC,[16],16 µg/mL
same,MIC,[17],16 µg/mL
same,MBC,[17],32 µg/mL
same,MIC,[18],8 µg/mL
same,MBC,[18],16 µg/mL
same,MIC,[19],32 µg/mL
same,MBC,[19],32 µg/mL
same,MIC,[20],16 µg/mL
same,MBC,[20],16 µg/mL
same,MBC,[21],32 µg/mL
same,MIC,[22],8 µg/mL
same,MBC,[22],8 µg/mL
same,MIC,[23],16 µg/mL
same,MBC,[23],16 µg/mL
same,MIC,[24],16 µg/mL
same,MBC,[24],16 µg/mL
